# Measured values: PubChem BioAssay (NCI)
#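 Protocol summary: plate cells (96-well), add compound at 5 concentrations, incubate 48 h, interpolate endpoints linearly. GI50 is the concentration that inhibits growth by half. Definition used: TGI = concentration required for complete inhibition of growth.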
# Test system: OVCAR-5 ovarian
# Test: inhibition of tumour cell growth, NCI panel, 48 h
row,Compound,TGI [µM]
1,CC(C)C(=O)OCC1OC(n2c(Br)nc3c(=O)[nH]c(N)nc32)C(OC(=O)C(C)C)C1OC(=O)C(C)C (configuration not stated),> 100
2,C[C@H](CCC(=O)O)[C@H]1CC[C@H]2[C@@H]3CC[C@@H]4C[C@H](O)CC[C@]4(C)[C@H]3C[C@H](O)[C@]12C,> 100
3,COC(=O)/C=C(\C)CC(O)/C=C(\C)CCC=C(C)C (configuration not stated),> 100

# Test system: OVCAR-8 ovarian
# Test: inhibition of tumour cell growth, NCI panel, 48 h
Compound,TGI [µM],GI50 [µM]
CCCCCCOC(=O)/C=C/[C@]1(CO)C/C(=C/CC(C(C)C)C(C)C)C(=O)O1,31.6,
Cc1nc2c(nc1C)-c1[nH]c3c(c1C(=O)C2=O)CCCC3=O,2.88,
Cn1c(=O)c2c(nc(Cc3ccccc3)n2CC(=O)O)n(C)c1=O,> 100,
C=CCCCCOc1ccccc1-c1cnc(OCCCCC=C)n1C,17.2,4.23
CC(C)C(=O)OCC1OC(n2c(Br)nc3c(=O)[nH]c(N)nc32)C(OC(=O)C(C)C)C1OC(=O)C(C)C (configuration not stated),> 100,
C[C@H](CCC(=O)O)[C@H]1CC[C@H]2[C@@H]3CC[C@@H]4C[C@H](O)CC[C@]4(C)[C@H]3C[C@H](O)[C@]12C,> 100,
COC(=O)/C=C(\C)CC(O)/C=C(\C)CCC=C(C)C (configuration not stated),> 100,

# Test system: PC-3 prostate
# Test: inhibition of tumour cell growth, NCI panel, 48 h
Compound,TGI [µM],GI50 [µM]
CCCCCCOC(=O)/C=C/[C@]1(CO)C/C(=C/CC(C(C)C)C(C)C)C(=O)O1,24.4,
Cc1nc2c(nc1C)-c1[nH]c3c(c1C(=O)C2=O)CCCC3=O,15.7,
Cn1c(=O)c2c(nc(Cc3ccccc3)n2CC(=O)O)n(C)c1=O,> 100,
C=CCCCCOc1ccccc1-c1cnc(OCCCCC=C)n1C,28.9,5.38
CC(C)C(=O)OCC1OC(n2c(Br)nc3c(=O)[nH]c(N)nc32)C(OC(=O)C(C)C)C1OC(=O)C(C)C (configuration not stated),62.9,
C[C@H](CCC(=O)O)[C@H]1CC[C@H]2[C@@H]3CC[C@@H]4C[C@H](O)CC[C@]4(C)[C@H]3C[C@H](O)[C@]12C,> 100,
COC(=O)/C=C(\C)CC(O)/C=C(\C)CCC=C(C)C (configuration not stated),> 100,

# Test system: RPMI-8226 leukemia
# Test: inhibition of tumour cell growth, NCI panel, 48 h
Compound,TGI [µM],GI50 [µM]
CCCCCCOC(=O)/C=C/[C@]1(CO)C/C(=C/CC(C(C)C)C(C)C)C(=O)O1,56.1,
Cc1nc2c(nc1C)-c1[nH]c3c(c1C(=O)C2=O)CCCC3=O,3.22,
C=CCCCCOc1ccccc1-c1cnc(OCCCCC=C)n1C,14.1,3.22
C[C@H](CCC(=O)O)[C@H]1CC[C@H]2[C@@H]3CC[C@@H]4C[C@H](O)CC[C@]4(C)[C@H]3C[C@H](O)[C@]12C,57.6,

# Test system: RXF 393 renal
# Test: inhibition of tumour cell growth, NCI panel, 48 h
Compound,TGI [µM],GI50 [µM]
CCCCCCOC(=O)/C=C/[C@]1(CO)C/C(=C/CC(C(C)C)C(C)C)C(=O)O1,36.9,
Cc1nc2c(nc1C)-c1[nH]c3c(c1C(=O)C2=O)CCCC3=O,2.41,
Cn1c(=O)c2c(nc(Cc3ccccc3)n2CC(=O)O)n(C)c1=O,> 100,
C=CCCCCOc1ccccc1-c1cnc(OCCCCC=C)n1C,18.2,5.23
C[C@H](CCC(=O)O)[C@H]1CC[C@H]2[C@@H]3CC[C@@H]4C[C@H](O)CC[C@]4(C)[C@H]3C[C@H](O)[C@]12C,> 100,
COC(=O)/C=C(\C)CC(O)/C=C(\C)CCC=C(C)C (configuration not stated),> 100,

# Test system: SF-268 CNS
# Test: inhibition of tumour cell growth, NCI panel, 48 h
Compound,TGI [µM],GI50 [µM]
CCCCCCOC(=O)/C=C/[C@]1(CO)C/C(=C/CC(C(C)C)C(C)C)C(=O)O1,23.5,
Cc1nc2c(nc1C)-c1[nH]c3c(c1C(=O)C2=O)CCCC3=O,2.9,
Cn1c(=O)c2c(nc(Cc3ccccc3)n2CC(=O)O)n(C)c1=O,> 100,
C=CCCCCOc1ccccc1-c1cnc(OCCCCC=C)n1C,21.3,4.21
CC(C)C(=O)OCC1OC(n2c(Br)nc3c(=O)[nH]c(N)nc32)C(OC(=O)C(C)C)C1OC(=O)C(C)C (configuration not stated),> 100,
C[C@H](CCC(=O)O)[C@H]1CC[C@H]2[C@@H]3CC[C@@H]4C[C@H](O)CC[C@]4(C)[C@H]3C[C@H](O)[C@]12C,> 100,

# Test system: SF-295 CNS
# Test: inhibition of tumour cell growth, NCI panel, 48 h
Compound,TGI [µM],GI50 [µM]
CCCCCCOC(=O)/C=C/[C@]1(CO)C/C(=C/CC(C(C)C)C(C)C)C(=O)O1,29.8,
Cc1nc2c(nc1C)-c1[nH]c3c(c1C(=O)C2=O)CCCC3=O,3.31,
Cn1c(=O)c2c(nc(Cc3ccccc3)n2CC(=O)O)n(C)c1=O,> 100,
C=CCCCCOc1ccccc1-c1cnc(OCCCCC=C)n1C,20.1,4.03
CC(C)C(=O)OCC1OC(n2c(Br)nc3c(=O)[nH]c(N)nc32)C(OC(=O)C(C)C)C1OC(=O)C(C)C (configuration not stated),56.7,
C[C@H](CCC(=O)O)[C@H]1CC[C@H]2[C@@H]3CC[C@@H]4C[C@H](O)CC[C@]4(C)[C@H]3C[C@H](O)[C@]12C,38.9,
COC(=O)/C=C(\C)CC(O)/C=C(\C)CCC=C(C)C (configuration not stated),> 100,

# Test system: SF-539 CNS
# Test: inhibition of tumour cell growth, NCI panel, 48 h
Compound,TGI [µM],GI50 [µM]
Cc1nc2c(nc1C)-c1[nH]c3c(c1C(=O)C2=O)CCCC3=O,3.12,
C=CCCCCOc1ccccc1-c1cnc(OCCCCC=C)n1C,19.7,5.82
C[C@H](CCC(=O)O)[C@H]1CC[C@H]2[C@@H]3CC[C@@H]4C[C@H](O)CC[C@]4(C)[C@H]3C[C@H](O)[C@]12C,99,
COC(=O)/C=C(\C)CC(O)/C=C(\C)CCC=C(C)C (configuration not stated),> 100,

# Test system: SK-MEL-2 melanoma
# Test: inhibition of tumour cell growth, NCI panel, 48 h
row,Compound,TGI [µM]
1,CCCCCCOC(=O)/C=C/[C@]1(CO)C/C(=C/CC(C(C)C)C(C)C)C(=O)O1,30.7
